US20070254847A1, “Pharmaceutical Composition Containing Steroidal Saponins, the Preparation Method and Use Thereof” (priority 2004, published 2007)
Marks after values point to notes of the source that are not given here.

Tested on: acute myocardial infarction in rats
Test: Effect on acute myocardial infarction in rats (ligation of left anterior descending coronary artery)
Assay type: in vivo, Wistar rats
Procedure: Test 1 Effect of Pseudoprotogracillin (□) on Acute Myocardial Infarction in Rats:
Pseudoprotogracillin (□) obtained in example 4 was applied in relevant pharmacological tests as follows:
Wistar rats, each weighing 180˜220 g, were randomized into 3 groups, namely control group, pseudoprotogracillin group of high dose and pseudoprotogracillin group of low dose, each of which had 12 rats. The rats in the control group were administered by gastric infusion of distilled water. The other rats in test groups were administered by gastric infusion of the relevant medicinal liquid (prepared with distilled water), according to the high dose (3 mg/kg) or low dose (1.5 mg/kg) listed in following table for each group, respectively. Infusion was performed once a day and continued for one week. 1 hour after last administration, urethane of 1 g/kg was given to the rats for abdominal anesthesia. The animal was fixed on its back and its skin was cut open along the midline of its sternum, along the left edge of which an incision was made for the heart to be squzeezed out quickly. Ligation was immediately made at the root of the left anterior descending branch of its coronary artery before putting the heart back into its thorax, which was then closed by suture and spontaneous breathing was restored. The test was ended 3 hours after ligation and the heart was sliced transversely below the line of ligation. 5 slices were blue-stained with nitrotetrazolium and an multiple color pathological analyzer (MPIAS-500) was applied to measure the areas of normal myocardium and infarct myocardium at a fixed imaging distance and to observe the degree of myocardial infarction.

[1] = High dose 3 mg/kg, gastric infusion once a day for one week, 3 hours after ligation, X ± s
[2] = Low dose 1.5 mg/kg, gastric infusion once a day for one week, 3 hours after ligation, X ± s

## 26-0-β-D-glucopyranosyl-3β, 26 glyco-25 (R)-Δ^5,20(22)-diene-furo-3-O-[α-L-Rhamnop yranosyl(1→2)]-[β-D-glucopyranosyl(1→3)]-β-D-glucopyranoside [pseudoprotogracillin (II)]
[1]
  Percentage of infarct area to the heart: 20.74 ± 1.9 %
  Percentage of infarct area to ventricle: 24.5 ± 2.6 %
  Weight of infraction: 0.227 ± 0.032 g
[2]
  Area of infraction: 91.3 ± 11.49* mm^2
  Percentage of infarct area to the heart: 25.2 ± 2.3 %
  Percentage of infarct area to ventricle: 28.1 ± 1.9 %
  Weight of infraction: 0.241 ± 0.045 g
High and low dose vs control group
  Action on myocardium (in words): obvious action to protect myocardium
